Here are results for 5 compounds from patent publication US11261177B2, “Benzoxazinone derivatives useful as herbicides” (REDAG CROP PROTECTION LTD, priority 2017, dated 2022).

What all share (format): in vivo
For test [1], the system named is Lolium perenne. The experiment in a line: Post-emergence herbicidal assay, 96 cell trays, glasshouse. Particulars: 168 h, second trial (Table 2), Lollium, assessed 7 days after treatment, read-out: % control of plant growth; for pest or weed control at 200 g/ha: 0.2 kg/ha; for pest or weed control at 1000 g/ha: 1 kg/ha; for pest or weed control at 5000 g/ha: 5 kg/ha. In a few lines:
(§1)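 Efficacy is expressed as % control of plant growth, judged 7 days after application. Application: soil surface 1 day post-sowing (pre) or foliar spray at two weeks (post), at 0.2, 1 or 5 kg/ha.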

Test [2] has as its system Stellaria media—Chickweed. The test is described as above. The following applies: 168 h, second trial (Table 2), assessed 7 days after treatment, read-out: % control of plant growth; for pest or weed control at 200 g/ha: 0.2 kg/ha; for pest or weed control at 1000 g/ha: 1 kg/ha; for pest or weed control at 5000 g/ha: 5 kg/ha. In a few lines: as §1
For test [3], the system named is Lolium perenne. Nature of the test: Pre-emergence herbicidal assay, 96 cell trays, glasshouse. Particulars: 168 h, second trial (Table 2), Lollium, assessed 7 days after treatment, read-out: % control of plant growth; for pest or weed control at 200 g/ha: 0.2 kg/ha; for pest or weed control at 1000 g/ha: 1 kg/ha; for pest or weed control at 5000 g/ha: 5 kg/ha. The gist of the method:
as §1

The test system of test [4] is Stellaria media—Chickweed. The description is as above. Particulars: 168 h, second trial (Table 2), assessed 7 days after treatment, read-out: % control of plant growth; for pest or weed control at 200 g/ha: 0.2 kg/ha; for pest or weed control at 1000 g/ha: 1 kg/ha; for pest or weed control at 5000 g/ha: 5 kg/ha. The gist of the method: as §1
Test [5] deals with 2 weed species (Stellaria media—Chickweed and Lolium perenne). The experiment in a line: Herbicidal activity screen, summary in words over both weed species. The following applies: pre- and post-emergence, 0.2, 1 and 5 kg/ha. As for the experimental part:
The compounds were screened at three concentrations (0.2, 1 and 5 kg/ha) against 2 weed species (Stellaria media—Chickweed and Lolium perenne). The seeds were sown in the cells of 96 cell trays (4-6 seeds per cell). For the pre-emergence assay, 75 μL of a suspension of the test compound, at the above doses, was added on top of the soil 1 day after sowing. For the post-emergence assay, the seedlings were sprayed with 200 μL of a suspension of the test compound two weeks after sowing. The formulation used is 25% acetone and 75% water/0.01% Tween 20. Each treatment was replicated three times. The plants were kept in a glasshouse (uncontrolled conditions) and assessed 7 days after treatment. A small number of compounds were tested in a first trial. A larger number of compounds were tested in a second trial. The assessment was based on the % control of plant growth in each cell.

As for `C#CCN1C(=O)C2(CC2)Oc2cc(F)c(/N=c3\sc(=O)n4n3CCCC4)cc21` [Example 31, (Z)-7-Fluoro-6-((3-oxotetrahydro-1H,3H-[1,3,4]thiadiazolo[3,4-a]pyridazin-1-ylidene)amino)-4-(prop-2-yn-1-yl)spiro[benzo[b][1,4]oxazine-2,1′-cyclopropan]-3(4H)-one], the pest or weed control at 200 g/ha in test [1], in test [2], in test [3] and in test [4] was 80 to 100% throughout. The pest or weed control at 1000 g/ha in test [1], in test [2], in test [3] and in test [4] was 80 to 100% in each case. The pest or weed control at 5000 g/ha in test [1], in test [2], in test [3] and in test [4] was 80 to 100% each time. Moreover, the herbicidal activity result in test [5] is recorded as “excellent herbicidal activity against all tested species”.

Regarding `C#CCN1C(=O)C2(CC2)Oc2cc(F)c(-n3c(=O)cc(C(F)(F)F)n(C)c3=O)cc21` [Example 34, 3-(7-Fluoro-3-oxo-4-(prop-2-yn-1-yl)-3,4-dihydrospiro[benzo[b][1,4]oxazine-2,1′-cyclopropan]-6-yl)-1-methyl-6-(trifluoromethyl)pyrimidine-2,4(1H,3H)-dione], the pest or weed control at 200 g/ha lay in the range of 20 to 80% in test [1], 80 to 100% in test [2], 20 to 80% in test [3] and 80 to 100% in test [4]. Moreover, the pest or weed control at 1000 g/ha in test [1], in test [2], in test [3] and in test [4] was 80 to 100% in each case. The pest or weed control at 5000 g/ha in test [1], in test [2], in test [3] and in test [4] was 80 to 100% in each case. The herbicidal activity entry in test [5] is “excellent herbicidal activity against all tested species”.

For `C#CCN1C(=O)C2(CC2)Oc2cc(F)c(-n3c(=O)cc(C(F)(F)F)n(CCC)c3=O)cc21` [Example 43], the pest or weed control at 200 g/ha in test [1] was 20 to 80%; in test [2], 80 to 100%; in test [3], 20 to 80%; in test [4] it was 20 to 80%. The pest or weed control at 1000 g/ha lay within 20 to 80% in test [1], 80 to 100% in test [2], 80 to 100% in test [3] and 80 to 100% in test [4]. Besides, the pest or weed control at 5000 g/ha in test [1], in test [2], in test [3] and in test [4] was 80 to 100% in each case. Besides, the herbicidal activity result in test [5] is given as “excellent herbicidal activity against all tested species”.

As for `C#CCN1C(=O)C2(CC2)Oc2cc(F)c(N3C(=O)C4CCCN4C3=O)cc21` (centres unmarked) [Example 44, 2-(7-Fluoro-3-oxo-4-(prop-2-yn-1-yl)-3,4-dihydrospiro[benzo[b][1,4]oxazine-2,1′-cyclopropan]-6-yl)tetrahydro-1H-pyrrolo[1,2-c]imidazole-1,3(2H)-dione], the pest or weed control at 200 g/ha in test [1] was 80 to 100%; in test [2], 80 to 100%; in test [3], < 20%; in test [4], 80 to 100%. Also, the pest or weed control at 1000 g/ha in test [1] was in the range of 80 to 100%; in test [2], 80 to 100%; in test [3] it was 20 to 80%; in test [4], 80 to 100%. Further, the pest or weed control at 5000 g/ha in test [1], in test [2], in test [3] and in test [4] was 80 to 100% throughout. Besides, the herbicidal activity result in test [5] is “excellent herbicidal activity against all tested species”.

On to `C#CCN1C(=O)C2(CC2)Oc2cc(F)c(N3C(=O)C4CCCCN4C3=O)cc21` (centres unmarked) [Example 47], for which the pest or weed control at 200 g/ha was 80 to 100% in test [1], 80 to 100% in test [2], 20 to 80% in test [3] and 80 to 100% in test [4]. For the same compound, the pest or weed control at 1000 g/ha in test [1], in test [2], in test [3] and in test [4] was 80 to 100% in each case. For the same compound, the pest or weed control at 5000 g/ha in test [1], in test [2], in test [3] and in test [4] was 80 to 100% each time. The herbicidal activity entry in test [5] is given as “excellent herbicidal activity against all tested species”.
